Source: article PMC10380810, “Nitazoxanide Inhibits the Bifunctional Enzyme GlG6PD::6PGL of Giardia lamblia: Biochemical and In Silico Characterization of a New Druggable Target” (International Journal of Molecular Sciences, 2023)

Target: T1, GlG6PD::6PGL (fused bifunctional glucose-6-phosphate dehydrogenase::6-phosphogluconolactonase) (Giardia duodenalis, UniProt A8BWM5)
T1 construct: gene GL50803_008682; recombinant fused GlG6PD::6PGL; activity of the G6PD domain measured
Test: residual G6PD activity at […] nm after […] h preincubation at […] °C with purified recombinant enzyme; k2 […] ^-1 s^-1; intrinsic and ANS fluorescence changes
Format: biochemical

T1 sequence (A8BWM5 entry or part of it): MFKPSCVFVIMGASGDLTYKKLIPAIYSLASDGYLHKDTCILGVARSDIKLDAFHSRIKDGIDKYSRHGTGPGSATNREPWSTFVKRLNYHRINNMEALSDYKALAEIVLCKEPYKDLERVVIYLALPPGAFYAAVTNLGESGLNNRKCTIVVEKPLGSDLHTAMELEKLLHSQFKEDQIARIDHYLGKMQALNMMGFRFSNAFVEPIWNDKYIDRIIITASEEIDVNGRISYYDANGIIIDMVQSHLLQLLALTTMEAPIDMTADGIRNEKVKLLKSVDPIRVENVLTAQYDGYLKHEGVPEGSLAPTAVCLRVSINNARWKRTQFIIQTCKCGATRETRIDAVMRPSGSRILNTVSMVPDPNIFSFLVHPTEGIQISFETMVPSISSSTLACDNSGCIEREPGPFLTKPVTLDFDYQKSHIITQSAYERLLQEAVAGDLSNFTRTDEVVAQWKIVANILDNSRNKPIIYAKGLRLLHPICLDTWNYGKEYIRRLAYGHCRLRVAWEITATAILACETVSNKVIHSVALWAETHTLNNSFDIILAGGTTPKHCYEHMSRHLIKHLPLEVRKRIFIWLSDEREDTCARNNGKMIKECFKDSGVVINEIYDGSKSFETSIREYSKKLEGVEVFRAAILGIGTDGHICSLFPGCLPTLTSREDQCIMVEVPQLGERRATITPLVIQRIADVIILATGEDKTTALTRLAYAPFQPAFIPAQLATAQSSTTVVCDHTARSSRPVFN

In the case of `CC(=O)Oc1ccccc1C(=O)Nc1ncc([N+](=O)[O-])s1` [NTZ, 2-acetyloloxy-N-(5-nitro-2thiazolyl)benzamide], the IC50 is reported as 40 µM.
